The values that follow come from article PMC7670682 (BMC Pharmacology & Toxicology, 2020).

For data set [1] the following is noted: after oral administration of imatinib; cited from earlier work.
Another data set has as its system OATP-B. More on the design: method as in PMID 16415120. To be noted: cited from earlier work.
The conditions of data set [2]: cited from earlier work.
For data set [3] the following is noted: combined use with St. John’s wort, a CYP3A4 inducer; cited from earlier work.
The nature of another data set: in vivo. The settings on record: male, Sprague Dawley, rat, po, 30 mg/kg.
The test system of a further data set is CYP3A. The settings on record: in vitro, different CYP3A substrates; read-out: IC50 of CYP3A inhibition; cited from earlier work.
Where [4] appears, read: metabolite, rats, imatinib 30 mg/kg IG + KTZ 75 mg/kg/day 3 days.
Where [5] appears, read: metabolite, rats, imatinib 30 mg/kg IG + h-GS 100 mg/kg/day 21 days.
Where [6] appears, read: metabolite, rats, imatinib 30 mg/kg IG + h-GS 100 mg/kg/day 21 days, vs imatinib only.
[7] abbreviates: metabolite, rats, imatinib 30 mg/kg IG + h-GS 100 mg/kg/day 21 days, vs l-GS group.
[8] abbreviates: metabolite, rats, imatinib 30 mg/kg IG + h-GS 100 mg/kg/day 21 days, when GS dose was doubled.
The mark [9] stands for this setting: metabolite, rats, imatinib 30 mg/kg IG + h-GS and h-GT 100 mg/kg/day each 21 days.
[10] abbreviates: metabolite, rats, imatinib 30 mg/kg IG + h-GS and h-GT 100 mg/kg/day each 21 days, vs imatinib only.
The mark [11] stands for this setting: metabolite, rats, imatinib 30 mg/kg IG + h-GS and h-GT 100 mg/kg/day each 21 days, vs l-GS and l-GT group.
The mark [12] stands for this setting: metabolite, rats, imatinib 30 mg/kg IG + h-GT 100 mg/kg/day 21 days.
The mark [13] stands for this setting: metabolite, rats, imatinib 30 mg/kg IG + l-GS 50 mg/kg/day 21 days.
[14] abbreviates: metabolite, rats, imatinib 30 mg/kg IG + l-GT 50 mg/kg/day 21 days.
Where [15] appears, read: metabolite, rats, imatinib 30 mg/kg IG only (control).
The mark [16] stands for this setting: rats, imatinib 30 mg/kg IG + KTZ 75 mg/kg/day 3 days.
Setting [17] is: rats, imatinib 30 mg/kg IG + h-GS 100 mg/kg/day 21 days.
Setting [18] is: rats, imatinib 30 mg/kg IG + h-GS and h-GT 100 mg/kg/day each 21 days.
The mark [19] stands for this setting: rats, imatinib 30 mg/kg IG + h-GT 100 mg/kg/day 21 days.
Setting [20] is: rats, imatinib 30 mg/kg IG + l-GS 50 mg/kg/day 21 days.
[21] abbreviates: rats, imatinib 30 mg/kg IG + l-GS and l-GT 50 mg/kg/day each 21 days.
[22] abbreviates: rats, imatinib 30 mg/kg IG + l-GT 50 mg/kg/day 21 days.
Setting [23] is: rats, imatinib 30 mg/kg IG only (control).
The mark [24] stands for this setting: intragastric administration of green tea, rats.
Where [25] appears, read: male, Sprague Dawley, rat, in vivo, po, 30 mg/kg.

Entries after “also recorded” stand apart in the source; their conditions may differ. Like-named read-outs stand apart in the source and are kept apart here. Marks after values point to notes of the source that are not given here.

Regarding `Cc1ccc(NC(=O)c2ccc(CN3CCNCC3)cc2)cc1Nc1nccc(-c2cccnc2)n1` [N-desmethyl imatinib], the t0.5 by setting is: under setting [4], 9.9 ± 4.4 h; under setting [5], 7.1 ± 0.9 h; under setting [13], 6.2 ± 0.5 h; under setting [14], 8.0 ± 0.7 h; under setting [15], 6.6 ± 0.5 h. Moreover, the tmax by setting is: under setting [4], 7.5 ± 1.0 h; under setting [5], 4.7 ± 2.0 h; under setting [9], 4.8 ± 2.2 h; under setting [12], 5.2 ± 2.6 h; under setting [13], 4.2 ± 1.0 h; (metabolite, rats, imatinib 30 mg/kg IG + l-GS and l-GT 50 mg/kg/day each 21 days) 5.8 ± 2.6 h. Besides, the tmax came out at 5.3 ± 1.6 h under setting [14] and 6.7 ± 2.1 h under setting [15]. Moreover, the mean residence time (MRT) amounted to 9.5 ± 1.0 h under setting [5]; 11.9 ± 2.3 h under setting [9]; 11.9 ± 2.6 h under setting [12]; 11.2 ± 1.8 h under setting [14]; 11.6 ± 3.8 h under setting [15]. In addition, the “decrease in AUC0∞” value reads like this: under setting [6], 73.0%; under setting [7], 58.5%; under setting [8], ~ 2 fold; under setting [10], 72.1%; under setting [11], 75.8%. Besides, the “decrease in Cmax” value reads like this: under setting [6], 67.8%; under setting [7], 63.3%; under setting [8], ~ 2 fold; under setting [10], 71.5%; under setting [11], 71.9%. The “increase in CL/F” value is reported as 3.7 fold under setting [6], 2.5 fold under setting [7], 5.3 fold under setting [10] and 6.5 fold under setting [11]. Also, the “increase in Vz/F” value is 4.1 fold under setting [6], 2.9 fold under setting [7], 8.7 fold under setting [10] and 8.8 fold under setting [11]. In addition, the “increase in t0.5” value reads like this: (metabolite, rats, imatinib 30 mg/kg IG + h-GS and h-GT 100 mg/kg/day each 21 days, vs h-GS group) 1.5 fold; (metabolite, rats, imatinib 30 mg/kg IG + h-GS and h-GT 100 mg/kg/day each 21 days, vs h-GT group) 1.4 fold; under setting [10], 1.6 fold; under setting [11], 1.3 fold. Moreover, the “increase in the terminal half-life” value (metabolite, rats, imatinib 30 mg/kg IG + h-GS and h-GT 100 mg/kg/day each 21 days, vs other high dose groups (h-GS or h-GT, not specified)) worked out at 1.4 fold. The Cmax by setting is: under setting [13], 408.8 ± 113.6 ng/mL; under setting [15], 465.6 ± 94.0 ng/mL. Moreover, the effect on pharmacokinetics result (metabolite, rats, imatinib 30 mg/kg IG + l-GS and l-GT 50 mg/kg/day each 21 days, vs imatinib only) is recorded as “no significant effects; also recorded: not significantly affected”. The “increase in AUC0∞” value reads like this: (metabolite, rats, imatinib 30 mg/kg IG + l-GS and l-GT 50 mg/kg/day each 21 days, vs l-GS group) 1.8 fold; (metabolite, rats, imatinib 30 mg/kg IG + l-GS and l-GT 50 mg/kg/day each 21 days, vs l-GT group) 6.1 fold. In addition, the “AUC0∞” value under setting [15] came to 7143.3 ± 2165.3 ng^.h/mL. In addition, the “differences in pharmacokinetic parameters” value (metabolite, rats, imatinib 30 mg/kg IG, l-GT vs h-GT group) is “no significant differences”. The “AUC0∞ metabolite/AUC0∞ drug percentage” value is 3.3% under setting [16]; 6.6% under setting [17]; 4.0% under setting [18]; 6.0% under setting [19]; 7.8% under setting [20]; 5.5% under setting [21]. Besides, the “AUC0∞ metabolite/AUC0∞ drug percentage” value is, setting by setting: under setting [22], 3.5%; under setting [23], 6.8%. For the same compound, the “Cmax (metabolite) /Cmax (drug) percentage” value reads like this: under setting [16], 3.4%; under setting [17], 6.0%; under setting [18], 3.6%; under setting [19], 5.3%; under setting [20], 7.9%; under setting [21], 5.0%. In addition, the “Cmax (metabolite) /Cmax (drug) percentage” value reads like this: under setting [22], 3.2%; under setting [23], 7.3%. Further, the elimination half-life in data set [1] was 40 h.
As for (−)-epicatechin-3-gallate [ECG], the “inhibition of estrone-3-sulfate uptake” value in the data set with OATP-B (concentration of 10 mM) is 66.6%.
`Oc1cc(O)c2c(c1)O[C@H](c1cc(O)c(O)c(O)c1)[C@H](O)C2` [EGC, (−)-epigallocatechin]: the bioavailability in data set [2] (rat, in vivo, po) is given as 13.7%. Besides, in the data set with OATP-B (concentration of 100 mM), the “inhibition of estrone-3-sulfate uptake” value is on record as 29.1%.
Regarding `Oc1cc(O)c2c(c1)O[C@H](c1ccc(O)c(O)c1)[C@@H](O)C2` [(+)-catechin], the “inhibition of estrone-3-sulfate uptake” value in the data set on OATP-B (concentration of 100 mM) was 31.7%.
For `Oc1cc(O)c2c(c1)O[C@H](c1ccc(O)c(O)c1)[C@H](O)C2` [EC, (−)-epicatechin], the bioavailability in data set [2] (setting [24]) is 31.2%. Further, the “inhibition of estrone-3-sulfate uptake” value in the data set on OATP-B (concentration of 10 mM) is recorded as 27.2%.
For the compound `Cc1ccc(NC(=O)c2ccc(CN3CCN(C)CC3)cc2)cc1Nc1nccc(-c2cccnc2)n1` [Imatinib, reference compound], the “AUC0∞” value under setting [25] was 105,160.8 ± 75,643.2 ng^.h/mL. Moreover, under setting [25], the tmax is recorded as 4.8 ± 2.3 h. The “decrease in t0.5” value runs as follows: (rats, imatinib 30 mg/kg IG + h-GS 100 mg/kg/day 21 days, vs imatinib only) “↓ 16.1%*”; (rats, imatinib 30 mg/kg IG + h-GS 100 mg/kg/day 21 days, vs imatinib only, listed as imatinib) 16.1%; (rats, imatinib 30 mg/kg IG + h-GS and h-GT 100 mg/kg/day each 21 days, vs imatinib only) 21.9%; (rats, imatinib 30 mg/kg IG + h-GS and h-GT 100 mg/kg/day each 21 days, vs l-GS and l-GT group) 23.1%; (rats, imatinib 30 mg/kg IG + h-GT 100 mg/kg/day 21 days, vs imatinib only) “↓ 15.8%*”; (rats, imatinib 30 mg/kg IG + h-GT 100 mg/kg/day 21 days, vs imatinib only, listed as imatinib) 15.8%. In addition, the “increase in t0.5” value is on record as 1.1 fold (rats, imatinib 30 mg/kg IG + l-GS and l-GT 50 mg/kg/day each 21 days, vs l-GS group); 1.3 fold (rats, imatinib 30 mg/kg IG + l-GS and l-GT 50 mg/kg/day each 21 days, vs l-GT group). Moreover, in data set [3], the “reduction of the area under the curve (AUC)” value was 30%. This compound showed a Cmax in the data set “in vivo” of 6400 ± 3160 ng/mL.
Regarding `O=C(O[C@@H]1Cc2c(O)cc(O)cc2O[C@@H]1c1cc(O)c(O)c(O)c1)c1cc(O)c(O)c(O)c1` [EGCG, (−)-epigallocatechin-3-gallate], the bioavailability in data set [2] (setting [24]) was 0.1%. For the same compound, the “inhibition of estrone-3-sulfate uptake” value in the data set on OATP-B (concentration of 10 mM) is reported as 29.5%.
As to `CC(=O)N1CCN(c2ccc(OCC3COC(Cn4ccnc4)(c4ccc(Cl)cc4Cl)O3)cc2)CC1` (centres unmarked) [KTZ, Ketoconazole], the concentration for half-maximal inhibition (IC50) in the data set on CYP3A is […].

Usually MRT stands for a mean duration of stay, worked out from the concentration-time curve. As a reminder, the Cmax is the highest concentration seen after dosing. Broadly, the bioavailability is the share of a dose that reaches the circulation, judged against a reference dose that is usually intravenous. One may read the IC50 as the concentration that inhibits the measured activity by half.
